From ChEMBL document CHEMBL1142390, “A set of phosphatase-inert "molecular rulers" to probe for bivalent mannose 6-phosphate ligand-receptor interactions” (Bioorg Med Chem Lett, 2008)

Experiments:
[1] = target: Cation-independent mannose-6-phosphate receptor (Bos taurus) (UniProt P08169); experiment: Displacement of pentamannosyl phosphate bovine serum albumin from M6P/IGF2R
[2] = target: Cation-independent mannose-6-phosphate receptor (Bos taurus) (UniProt P08169); experiment: Displacement of pentamannosyl phosphate bovine serum albumin from M6P/IGF2R relative to M6P

Sequence of Cation-independent mannose-6-phosphate receptor (Bos taurus) (P08169 whole entry, looked up): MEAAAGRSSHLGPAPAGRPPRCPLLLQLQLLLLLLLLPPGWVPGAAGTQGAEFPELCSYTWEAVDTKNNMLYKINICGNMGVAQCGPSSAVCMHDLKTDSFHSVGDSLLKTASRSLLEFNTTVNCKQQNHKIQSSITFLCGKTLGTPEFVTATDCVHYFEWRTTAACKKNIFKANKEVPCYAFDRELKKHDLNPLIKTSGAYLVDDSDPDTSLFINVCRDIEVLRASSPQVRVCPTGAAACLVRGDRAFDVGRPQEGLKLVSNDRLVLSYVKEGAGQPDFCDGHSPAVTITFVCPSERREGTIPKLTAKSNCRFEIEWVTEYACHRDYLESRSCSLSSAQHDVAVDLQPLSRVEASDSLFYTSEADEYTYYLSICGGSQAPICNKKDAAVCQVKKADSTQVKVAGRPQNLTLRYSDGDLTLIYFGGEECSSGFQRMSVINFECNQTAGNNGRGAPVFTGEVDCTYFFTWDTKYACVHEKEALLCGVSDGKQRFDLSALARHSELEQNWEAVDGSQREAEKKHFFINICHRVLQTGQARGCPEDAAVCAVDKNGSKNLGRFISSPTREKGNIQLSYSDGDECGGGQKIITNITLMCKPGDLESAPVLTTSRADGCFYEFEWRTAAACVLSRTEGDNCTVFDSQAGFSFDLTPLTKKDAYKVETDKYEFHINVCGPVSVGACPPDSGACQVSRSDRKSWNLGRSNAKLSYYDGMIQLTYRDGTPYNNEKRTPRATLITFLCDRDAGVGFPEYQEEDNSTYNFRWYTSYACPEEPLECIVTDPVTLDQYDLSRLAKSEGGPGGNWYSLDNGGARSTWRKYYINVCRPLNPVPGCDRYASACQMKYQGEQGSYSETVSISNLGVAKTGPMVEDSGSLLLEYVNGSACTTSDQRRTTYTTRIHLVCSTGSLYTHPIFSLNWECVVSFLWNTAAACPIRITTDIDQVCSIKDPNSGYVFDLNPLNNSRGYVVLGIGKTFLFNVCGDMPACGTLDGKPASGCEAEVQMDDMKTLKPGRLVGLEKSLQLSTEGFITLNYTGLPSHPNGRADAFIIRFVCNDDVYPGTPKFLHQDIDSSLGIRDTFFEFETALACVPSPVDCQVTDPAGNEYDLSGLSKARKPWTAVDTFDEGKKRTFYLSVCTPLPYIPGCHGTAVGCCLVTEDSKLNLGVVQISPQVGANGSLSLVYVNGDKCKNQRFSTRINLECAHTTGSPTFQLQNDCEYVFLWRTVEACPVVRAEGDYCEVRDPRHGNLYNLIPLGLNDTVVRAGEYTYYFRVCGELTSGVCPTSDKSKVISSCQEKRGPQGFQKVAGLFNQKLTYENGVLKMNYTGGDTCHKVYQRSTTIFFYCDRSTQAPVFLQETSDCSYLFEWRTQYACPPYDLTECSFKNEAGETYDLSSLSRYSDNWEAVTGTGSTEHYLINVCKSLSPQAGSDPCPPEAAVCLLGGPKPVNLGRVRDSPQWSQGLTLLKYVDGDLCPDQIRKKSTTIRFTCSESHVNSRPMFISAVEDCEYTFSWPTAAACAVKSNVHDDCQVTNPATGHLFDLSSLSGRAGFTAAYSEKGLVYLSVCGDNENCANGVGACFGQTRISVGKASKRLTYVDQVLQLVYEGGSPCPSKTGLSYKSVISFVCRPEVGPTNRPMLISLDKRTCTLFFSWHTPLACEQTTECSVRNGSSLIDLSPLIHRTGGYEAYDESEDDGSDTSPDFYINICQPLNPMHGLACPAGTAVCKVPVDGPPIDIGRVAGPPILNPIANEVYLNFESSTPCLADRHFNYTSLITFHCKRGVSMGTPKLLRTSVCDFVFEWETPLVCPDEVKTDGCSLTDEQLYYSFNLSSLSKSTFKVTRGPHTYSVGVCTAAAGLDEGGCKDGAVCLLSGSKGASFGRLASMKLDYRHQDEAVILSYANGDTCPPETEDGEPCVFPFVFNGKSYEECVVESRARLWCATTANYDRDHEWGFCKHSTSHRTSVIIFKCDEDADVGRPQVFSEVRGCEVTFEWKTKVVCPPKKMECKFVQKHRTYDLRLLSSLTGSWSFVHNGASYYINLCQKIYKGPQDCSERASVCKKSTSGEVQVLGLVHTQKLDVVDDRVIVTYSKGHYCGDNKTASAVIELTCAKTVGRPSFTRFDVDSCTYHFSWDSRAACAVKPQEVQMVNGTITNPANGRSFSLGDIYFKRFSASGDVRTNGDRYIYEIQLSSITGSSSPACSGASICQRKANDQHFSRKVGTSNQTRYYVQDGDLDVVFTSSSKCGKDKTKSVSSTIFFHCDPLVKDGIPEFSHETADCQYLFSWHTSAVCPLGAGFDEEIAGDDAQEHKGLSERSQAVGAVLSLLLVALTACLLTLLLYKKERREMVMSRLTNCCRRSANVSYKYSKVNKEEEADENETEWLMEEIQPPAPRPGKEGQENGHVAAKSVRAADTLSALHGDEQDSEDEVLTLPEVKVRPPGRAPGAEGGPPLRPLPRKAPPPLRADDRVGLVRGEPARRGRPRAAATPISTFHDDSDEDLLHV

Row | Compound | IC50 [1] | relative binding affinity (RBA) [2]
1 | O=P(O)(O)OC[C@H]1O[C@@H](O)[C@H](O)[C@@H](O)[C@@H]1O | > 10 µM | –
2 | O=P(O)(O)OC[C@H]1O[C@H](OCCCCCCCCCCCCO[C@H]2O[C@H](COP(=O)(O)O)[C@@H](O)[C@H](O)[C@@H]2O)[C@@H](O)[C@@H](O)[C@@H]1O | 3.7 µM | 3.02
3 | CC(=O)N[C@H](C(=O)N[C@@H](CCCCN)C(=O)N[C@H](C(N)=O)[C@@H](C)O[C@H]1O[C@H](CO)[C@@H](O)[C@H](O)[C@@H]1O[C@H]1O[C@H](COP(=O)(O)O)[C@@H](O)[C@H](O)[C@@H]1O)[C@@H](C)O[C@H]1O[C@H](CO)[C@@H](O)[C@H](O)[C@@H]1O[C@H]1O[C@H](COP(=O)(O)O)[C@@H](O)[C@H](O)[C@@H]1O | 20 µM | 13

Continued, values first:

Row | IC50 [1] | relative binding affinity (RBA) [2] | Compound
4 | 11.5 µM | – | O=P(O)(O)OC[C@H]1OC(O)[C@@H](O)[C@@H](O)[C@@H]1O (stereo not given in full)
5 | 0.09 µM | 2890 | CC(=O)N[C@H](C(=O)N[C@@H](CCCCNC(=O)c1ccccc1N)C(=O)N[C@H](C(N)=O)[C@@H](C)O[C@H]1O[C@H](CO)[C@@H](O)[C@H](O)[C@@H]1O[C@H]1O[C@H](COP(=O)(O)O)[C@@H](O)[C@H](O)[C@@H]1O)[C@@H](C)O[C@H]1O[C@H](CO)[C@@H](O)[C@H](O)[C@@H]1O[C@H]1O[C@H](COP(=O)(O)O)[C@@H](O)[C@H](O)[C@@H]1O
6 | 1.8 µM | 144 | CC(=O)NCCCC[C@H](NC(=O)[C@@H](NC(C)=O)[C@@H](C)O[C@H]1O[C@H](CO)[C@@H](O)[C@H](O)[C@@H]1O[C@H]1O[C@H](COP(=O)(O)O)[C@@H](O)[C@H](O)[C@@H]1O)C(=O)N[C@H](C(N)=O)[C@@H](C)O[C@H]1O[C@H](CO)[C@@H](O)[C@H](O)[C@@H]1O[C@H]1O[C@H](COP(=O)(O)O)[C@@H](O)[C@H](O)[C@@H]1O
